# Measured values from US8492589B2, “Alkynyl phenyl derivative compounds for treating ophthalmic diseases and disorders” (Acucela Inc., priority 2007, dated 2013).
# Legend:
# [1] = system: retinoid nuclear receptors (RAR and RXR); assay: Retinoid nuclear receptor activity, RAR and RXR together; type: cell-based; details: reference agonists
# [2] = molecular target: T1, visual cycle isomerase (Bovine RPE microsome membranes) (Bos taurus, UniProt Q28175); assay: In vitro isomerase inhibition assay, bovine RPE microsome membranes; type: biochemical; details: bovine RPE microsomes; 11-cis retinol formation
# T1 construct: Bovine Retinal Pigment Epithelium (RPE) microsome membranes were the source of a visual cycle isomerase; from tissue; host or cells: bovine retinal pigment epithelium microsome membranes
# T1 sequence (Q28175 2-533 limits assumed): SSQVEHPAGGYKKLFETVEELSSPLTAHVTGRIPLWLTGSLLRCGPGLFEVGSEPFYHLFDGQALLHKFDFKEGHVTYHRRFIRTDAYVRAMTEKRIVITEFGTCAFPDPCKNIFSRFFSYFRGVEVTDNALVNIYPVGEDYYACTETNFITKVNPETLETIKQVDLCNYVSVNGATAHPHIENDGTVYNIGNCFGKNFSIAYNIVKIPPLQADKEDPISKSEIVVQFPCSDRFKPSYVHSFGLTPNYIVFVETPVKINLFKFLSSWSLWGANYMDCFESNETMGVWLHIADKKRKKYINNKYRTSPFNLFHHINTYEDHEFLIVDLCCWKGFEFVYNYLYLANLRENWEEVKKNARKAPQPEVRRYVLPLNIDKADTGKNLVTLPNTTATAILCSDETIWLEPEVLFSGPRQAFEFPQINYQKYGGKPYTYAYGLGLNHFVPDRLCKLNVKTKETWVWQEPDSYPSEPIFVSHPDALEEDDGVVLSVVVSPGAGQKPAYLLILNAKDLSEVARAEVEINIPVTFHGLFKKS
# Experimental: The capability of alkynyl phenyl-linked amine derivative compounds to inhibit the activity of a visual cycle isomerase was determined.
# Bovine Retinal Pigment Epithelium (RPE) microsome membranes were the source of a visual cycle isomerase.
# Crude RPE microsome extracts were thawed in a 37° C. water bath, and then immediately placed on ice. 50 ml crude RPE microsomes were placed into a 50 ml Teflon-glass homogenizer (Fisher Scientific, catalog no. 0841416M) on ice, powered by a hand-held DeWalt drill, and homogenized ten times up and down on ice under maximum speed. This process was repeated until the crude RPE microsome solution was homogenized. The homogenate was then subjected to centrifugation (50.2 Ti rotor (Beckman, Fullerton, Calif.), 13,000 RPM; 15360 Rcf) for 15 minutes at 4° C. The supernatant was collected and subjected to centrifugation at 42,000 RPM (160,000 Rcf; 50.2 Ti rotor) for 1 hour at 4° C. The supernatant was removed, and the pellets were suspended in 12 ml (final volume) cold 10 mM MOPS buffer, pH 7.0. The resuspended RPE membranes in 5 ml aliquots were homogenized in a glass-to-glass homogenizer (Fisher Scientific, catalog no. K885500-0021) to high homogeneity. Protein concentration was quantified using the BCA protein assay according to the manufacturer's protocol (Pierce, Rockford, Ill.). The homogenized RPE preparations were stored at −80° C.
# Recombinant human apo cellular retinaldehyde-binding protein (CRALBP) was cloned and expressed according to standard methods in the molecular biology art (see Crabb et al., Protein Science 7:746-57 (1998); Crabb et al., J. Biol. Chem. 263:18688-92 (1988)). Briefly, total RNA was prepared from confluent ARPE19 cells (American Type Culture Collection, Manassas, Va.), cDNA was synthesized using an oligo(dT)12-18 primer, and then DNA encoding CRALBP was amplified by two sequential polymerase chain reactions (see Crabb et al., J. Biol. Chem. 263:18688-92 (1988); Intres, et al., J. Biol. Chem. 269:25411-18 (1994); GenBank Accession No. L34219.1). The PCR product was sub-cloned into pTrcHis2-TOPO TA vector according to the manufacturer's protocol (Invitrogen Inc., Carlsbad, Calif.; catalog no. K4400-01), and then the sequence was confirmed according to standard nucleotide sequencing techniques. Recombinant 6×His-tagged human CRALBP was expressed in One Shot TOP 10 chemically competent E. coli cells (Invitrogen), and the recombinant polypeptide was isolated from E. coli cell lysates by nickel affinity chromatography using nickel (Ni) Sepharose XK16-20 columns for HPLC (Amersham Bioscience, Pittsburgh, Pa.; catalog no. 17-5268-02). The purified 6×His-tagged human CRALBP was dialyzed against 10 mM bis-tris-Propane (BTP) and analyzed by SDS-PAGE. The molecular weight of the recombinant human CRALBP was approximately 39 kDal.
# Alkkynyl phenyl-linked amine derivative compounds and control compounds were reconstituted in ethanol to 0.1 M. Ten-fold serial dilutions (10^−2, 10^−3, 10^−4, 10^−5, 10^−6 M) in ethanol of each compound were prepared for analysis in the isomerase assay.
# The isomerase assay was performed in 10 mM bis-tris-propane (BTP) buffer, pH 7.5, 0.5% BSA (diluted in BTP buffer), 1 mM sodium pyrophosphate, 20 μM all-trans retinol (in ethanol), and 6 μM apo-CRALBP. The test compounds (2 μl) (final […] dilution of serial dilution stocks) were added to the above reaction mixture to which RPE microsomes were added. The same volume of ethanol was added to the control reaction (absence of test compound). Bovine RPE microsomes (9 μl) (see above) were then added, and the mixtures transferred to 37° C. to initiate the reaction (total volume=150 μl). The reactions were stopped after 30 minutes by adding methanol (300 μl). Heptane was added (300 μl) and mixed into the reaction mixture by pipetting. Retinoid was extracted by agitating the reaction mixtures, followed by centrifugation in a microcentrifuge. […]
"activation of the RXRα, RARα, RARβ and RARγ receptors [1]",IC50 [2],Structure (SMILES)
activated,,"CC1=C(/C=C/C(C)=C/C=C/C(C)=C/C(=O)O)C(C)(C)CCC1 [at-RA, all-trans-retinoic acid]"
activated,,"C/C(=C\c1ccc(C(=O)O)cc1)c1ccc2c(c1)C(C)(C)CCC2(C)C [TTNPB, E-4-[2-(5,6,7,8-tetrahydro-5,5,8,8-tetramethyl-2-naphthylenyl)-1-propenyl]benzoic acid]"
,≤ 1 µM,"NCCOc1cccc(C#CCCc2ccccc2)c1 [Example 86, 2-(3-(4-Phenylbut-1-ynyl)phenoxy)ethanamine]"
,≤ 1 µM,"CC(O)(C#Cc1cccc(CCCN)c1)c1ccccc1 (stereo not drawn) [Example 22, 4-(3-(3-Aminopropyl)Phenyl)-2-Phenylbut-3-Yn-2-ol]"
,≤ 1 µM,"COCCCC#Cc1cccc(CCCN)c1 [Example 70, 3-(3-(5-Methoxypent-1-ynyl)phenyl)propan-1-amine]"
,≤ 100 µM,"CSc1ccc(C#Cc2cccc(CCCN)c2)cc1 [Example 94, 3-(3-((4-(Methylthio)phenyl)ethynyl)phenyl)propan-1-amine]"
,≤ 10 µM,"NCCCc1cccc(C#Cc2ccccc2O)c1 [Example 89, 2-((3-(3-Aminopropyl)phenyl)ethynyl)phenol]"
,≤ 1 µM,"COc1ccccc1C#Cc1cccc(OCCN)c1 [Example 91, 2-(3-((2-Methoxyphenyl)Ethynyl)Phenoxy)Ethanamine]"
,≤ 1000 µM,"NCCCc1cccc(C#Cc2ccc3ccccc3c2)c1 [Example 45, 3-(3-(Naphthalen-2-ylethynyl)phenyl)propan-1-amine]"
,≤ 100 µM,"NCCCc1cccc(C#CCO)c1 [Example 10, 3-(3-(3-Aminopropyl)phenyl)prop-2-yn-1-ol]"
,≤ 10 µM,"NCCOc1cccc(C#CC2(O)CCOCC2)c1 [Example 56, 4-((3-(2-Aminoethoxy)phenyl)ethynyl)tetrahydro-2H-pyran-4-ol]"
,≤ 1 µM,"NCCCc1cccc(C#CCCc2ccccc2)c1 [Example 72, 3-(3-(4-Phenylbut-1-ynyl)phenyl)propan-1-amine]"
,≤ 10 µM,"N#Cc1cccc(C#Cc2cccc(OCCN)c2)c1 [Example 88, 3-((3-(2-Aminoethoxy)phenyl)ethynyl)benzonitrile]"
,≤ 1 µM,"CCCCC[C@@H](O)C#Cc1cccc(CCCN)c1 [Example 15, (R)-1-(3-(3-Aminopropyl)phenyl)oct-1-yn-3-ol]"
,≤ 100 µM,"Cc1cccc(C#Cc2cccc(CCCN)c2)c1 [Example 87, 3-(3-(m-Tolylethynyl)phenyl)propan-1-amine]"
,≤ 10 µM,"CC(O)CC#Cc1cccc(CCCN)c1 (stereo not drawn) [Example 35, 5-(3-(3-Aminopropyl)phenyl)pent-4-yn-2-ol]"
,≤ 100 µM,"NCCCc1cccc(C#Cc2cccc(C(F)(F)F)c2)c1 [Example 92, 3-(3-((3-(Trifluoromethyl)Phenyl)Ethynyl)Phenyl)Propan-1-Amine]"
,≤ 1 µM,"NCCOc1cccc(C#Cc2cccs2)c1 [Example 95, 2-(3-(Thiophen-2-ylethynyl)phenoxy)ethanamine]"
,≤ 10 µM,"CC(C)(C)C(O)(C#Cc1cccc(CCCN)c1)C(C)(C)C [Example 12, 1-(3-(3-Aminopropyl)phenyl)-3-tert-butyl-4,4-dimethylpent-1-yn-3-ol]"
,≤ 1 µM,"NCCCc1cccc(C#CC2CCCCC2)c1 [Example 41, 3-(3-(Cyclohexylethynyl)phenyl)propan-1-amine]"
,≤ 100 µM,"NCCOc1cccc(C#CCCO)c1 [Example 76, 4-(3-(2-Aminoethoxy)phenyl)but-3-yn-1-ol]"
,≤ 1 µM,"CCCCCC#Cc1cccc(OCCN)c1 [Example 77, 2-(3-(hept-1-ynyl)phenoxy)ethanamine]"
,≤ 10 µM,"NCCOc1cccc(C#Cc2ccccn2)c1 [Example 98, 2-(3-(Pyridin-2-ylethynyl)phenoxy)ethanamine]"
,≤ 10 µM,"Cc1ccccc1C#Cc1cccc(CCCN)c1 [Example 83, 3-(3-(o-Tolylethynyl)phenyl)propan-1-amine]"
